≈ marks a conversion by molar mass, not a printed value. Where “and” joins values, the source holds several entries; their conditions need not be identical. Identical values can stand only once. Entries after “also recorded” stand apart in the source; their conditions may differ. Like-named read-outs stand apart in the source and are kept apart here.
How the values were obtained:
L. amazonensis arginase = conditions: cited from earlier work; for inhibition of L. amazonensis arginase activity: final concentration of 20 μM ref 13; for IC50: read-out: IC50 against L. amazonensis arginase; for effect on L. amazonensis arginase (in words): phenolics without catechol group ref 15
[1] = system: BALB/c mice peritoneal macrophages; conditions: cited from earlier work
[2] = Cytotoxicity in RAW 264.7 macrophages (MTT); format: cell-based; conditions: mouse, read-out: RAW 264.7 CC50±SE
Method: RAW 264.7 macrophages were cultured in polystyrene culture flasks containing DMEM medium supplemented with 10% FBS at 37 °C and 5% CO2 atmosphere. For cytotoxic evaluation, 48 h cultured cells were harvested, washed with culture medium, and distributed into 96-well culture plates at 10^5 cells/well concentration. The cells were allowed to adhere for 2 h prior to the addition of increasing inhibitor concentrations (31–1000 µg/mL). Treated cell cultures were incubated for 48 h under the same experimental conditions. After this period, cell viability was determined by colorimetric assay using MTT solution (5 mg/mL) as an indicator. The 50% cytotoxic concentration (CC50) was calculated by analysing the dose-response curves generated from the data.

[3] = system: L. infantum-infected RAW 264.7 macrophages; test: Nitric oxide production by infected macrophages (Griess reaction); format: cell-based; conditions: for increase in nitrite levels in comparison to the control: 48 h; for effect on NO production by infected macrophages (in words): 48 h treatment
Method: (§1) The intracellular anti-amastigote activity was performed according to previously described procedures[31] with some modifications. Initially, RAW 264.7 macrophages were distributed in 96-well plates and, after adherence (incubation for 2 h), cells were washed twice with phosphate buffer saline (PBS, pH 7.2). Then, the adherent cells were infected with promastigote forms of L. infantum at the stationary phase of growth in a proportion of 10 parasites/macrophage. After 4 h of interaction at 37 °C and 5% CO2 atmosphere, free parasites were washed away with PBS and infected macrophages were incubated for another 24 h to allow differentiation into amastigotes. After this time, infected cells were treated for 48 h with increasing concentrations of the selected inhibitor. Subsequently, the culture supernatant was collected for evaluation of nitric oxide production using the Griess reaction. Cells were washed with PBS, then Schneider’s medium supplemented with 5% FBS was added and the plate was incubated at 26 °C for 72 h. The parasite survival was estimated by viability of differentiated promastigote forms recovered from the cultures using MTT (5 mg/mL). The results were expressed as the percentage of viability in relation to that obtained for the control (100%). The IC50 for amastigote forms was calculated from the dose-response curves generated from the data.
In order to determine if ARGLi inhibitors were capable of modulating the host cell response, RAW 264.7 macrophages were infected with promastigote forms of L. infantum and treated with different concentrations of inhibitors for 48 h. After treatment, NO production was measured. […] This increase is similar to that observed for the reference drug Fungizone® (Figure 5(B)). The effect of caffeic acid on NO production may be a result of macrophage arginase inhibition and consequent oxidation of accumulated L-arginine by inducible NO synthase (iNOS).
Figure 5. Nitric oxide production by L. infantum-infected RAW 264.7 macrophages treated with different concentrations of ARGLi inhibitors. (A) Treatment with 3.1–200 μg/mL of rosmarinic acid (black), caffeic acid (light gray), and catechin (dark gray). (B) Treatment with 0.062–0.5 μg/mL of the reference drug fungizone. Control (white) represents the production of nitric oxide by infected and untreated macrophages. Nitrite concentration was measured by the Griess reaction and data represent mean ± SE of two independent experiments.

[4] = system: intracellular amastigotes of L. amazonensis; design: method as in PMID 24906989; conditions: cited from earlier work
[5] = system: L. amazonensis promastigotes; conditions: cited from earlier work
bovine hepatic arginase = system: bovine hepatic arginase; design: method as in PMID 27776374; conditions: cited from earlier work; for percentage of inhibition of bovine hepatic arginase: 100 μM ref 37
L. amazonensis = conditions: cited from earlier work; for reduction of lesion size and parasite burden (in words): compared with reference drug Glucantime ref 42; for mice death or loss of body weight (in words): treated BALB/c mice ref 42
[6] = system: L. infantum intracellular amastigotes; test: Intracellular anti-amastigote activity in infected RAW 264.7 macrophages; format: cell-based, Leishmania infantum; conditions: for SI AMA (selectivity index CC50/IC50, intracellular amastigotes): CC50 RAW 264.7 / IC50 intracellular amastigotes; for IC50: Leishmania infantum, RAW264.7, 48 h, infected RAW 264.7, 48 h treatment, read-out: Intracellular amastigotes IC50±SE
Method: as §1

[7] = system: L. infantum promastigotes; test: Inhibition of L. infantum promastigotes growth (resazurin); format: cell-based, Leishmania infantum; conditions: for SI PRO (selectivity index CC50/IC50, promastigotes): CC50 RAW 264.7 / IC50 promastigotes; for IC50: Leishmania infantum, read-out: Promastigotes IC50±SE; for IC50 / Promastigotes IC50±SE: 96 h, 26 °C, resazurin
Method: The parasite growth inhibition assays were performed on 96-well microplates, where the selected ARGLi inhibitors were previously diluted (1–200 μg/mL). Subsequently, promastigote forms of L. infantum collected in late logarithmic phase (96 h) were added to microplates at the final concentration of 10^6 parasites/mL. Microplates were incubated at 26 °C for 96 h. After the incubation period, parasites viability was determined using 0.005% resazurin[30]. The 50% inhibitory concentration (IC50) was determined from the dose-response curves generated from the data.

[8] = system: axenic amastigote forms of L. donovani; design: method as in PMID 16569852; conditions: cited from earlier work
ARGLi = conditions: read-out: Km for L-arginine; 1 to 50 mM L-arginine, pH 9.5, 37 °C
Method: ARGLi (0.2 µg/mL) was incubated with L-arginine at concentrations ranging from 1 to 50 mM in 50 mM CHES buffer (pH 9.5) at 37 °C for 5 min. Vmax and Km values were determined by the analysis of the initial velocity versus substrate concentration curve using the Michaelis–Menten equation in Graph Prism 6.

[9] = system: Leishmania infantum arginase (ARGLi); test: ARGLi inhibition by phenolic substances (urea production); format: biochemical; conditions: 100 µM substance, 50 mM L-arginine, pH 9.5, 37 °C, 5 min

For Oc1cc(O)c2c(c1)O[C@H](c1ccc(O)c(O)c1)[C@H](O)C2 [(−)-epicatechin], the “inhibition of L. amazonensis arginase activity” value (L. amazonensis arginase) is given as “more than 50%”.
For O=c1c(O[C@@H]2O[C@H](CO)[C@@H](O)[C@H](O)[C@H]2O)c(-c2ccc(O)c(O)c2)oc2cc(O)cc(O)c12 [isoquercitrin], the “inhibition of L. amazonensis arginase activity” value (L. amazonensis arginase) is listed as “more than 50%”.
For O=c1c(O)c(-c2ccc(O)c(O)c2)oc2cc(O)ccc12 [fisetin], the IC50 (L. amazonensis arginase) is listed as 1.4 ± 0.3 µM.
In the case of O=C(O)/C=C/c1ccc(O)c(O)c1 [Caffeic acid, caffeic acid], the “CC50 for BALB/c mice peritoneal macrophages” value [1] is given as 32.5 ± 2.0 µg/mL, the CC50 at 48 h ([2]; RAW 264.7 macrophages) is given as 220 µg/mL and 1.22 mM and the “increase in nitrite levels in comparison to the control” value ([3]; 100 µg/mL) is given as 234.6%. The “increase in nitrite levels in comparison to the control” value ([3]; 200 µg/mL) was 311.5%, the “effect on NO production by infected macrophages (in words)” value [3] was “significantly increased nitric oxide production; also recorded: significantly increased NO production” and the “IC50 for intracellular amastigotes of L. amazonensis” value [4] was 2.9 ± 0.3 µg/mL. The “IC50 against L. amazonensis promastigote forms” value [5] was 0.9 ± 0.2 µg/mL (≈ 5 µM), the “percentage of inhibition of bovine hepatic arginase” value (bovine hepatic arginase) was 61.3 ± 4.1% and the IC50 (bovine hepatic arginase) was 86.7 µM. For the same compound, the “reduction of lesion size and parasite burden (in words)” value (L. amazonensis) was “more effective in reducing lesion size and parasite burden”, the “mice death or loss of body weight (in words)” value (L. amazonensis) was “did not lead to mice death or significant loss of body weight” and the “SI AMA (selectivity index CC50/IC50, intracellular amastigotes)” value [6] was 55.69. For the same compound, the IC50 [6] was 3.95 µg/mL and 21.9 µM, the “SI PRO (selectivity index CC50/IC50, promastigotes)” value [7] was 20.05 and the IC50 [7] was 11 µg/mL and 60.8 µM.
In the case of O=c1c(O)c(-c2ccc(O)cc2)oc2cc(O)cc(O)c12 [kaempferol, reference compound], the “IC50 against L. donovani” value [8] is given as 2.9 µg/mL (≈ 10.1 µM) and the IC50 (L. amazonensis arginase) is given as 50 µM.
In the case of O=c1cc(-c2ccc(O)c(O)c2)oc2cc(O)cc(O)c12 [luteolin], the IC50 (L. amazonensis arginase) is listed as 9 ± 1 µM.
For O=C(/C=C/c1ccc(O)c(O)c1)O[C@H](Cc1ccc(O)c(O)c1)C(=O)O [Rosmarinic acid, rosmarinic acid], the “CC50 for BALB/c mice peritoneal macrophages” value [1] is listed as 33.5 ± 1.4 µg/mL, the CC50 at 48 h [2] is listed as 177 µg/mL and 491 µM and the “effect on NO production by infected macrophages (in words)” value [3] is listed as “did not affect NO production”. For the same compound, the “IC50 for intracellular amastigotes of L. amazonensis” value [4] was 1.7 ± 0.4 µg/mL, the “IC50 against L. amazonensis promastigote forms” value [5] was 0.2 ± 0.1 µg/mL (≈ 0.555 µM) and the “reduction of lesion size and parasite burden (in words)” value (L. amazonensis) was “more effective in reducing lesion size and parasite burden”. The “mice death or loss of body weight (in words)” value (L. amazonensis) was “did not lead to mice death or significant loss of body weight”, the “SI AMA (selectivity index CC50/IC50, intracellular amastigotes)” value [6] was 61.79 and the IC50 [6] was 2.86 µg/mL and 7.9 µM. The “SI PRO (selectivity index CC50/IC50, promastigotes)” value [7] was 8.56 and the IC50 [7] was 20.6 µg/mL and 57.3 µM.
In the case of COc1cc(-c2oc3cc(O)cc(O)c3c(=O)c2O)ccc1O [Isorhamnetin, isorhamnetin], the CC50 at 48 h [2] is given as > 1000 µg/mL and > 3 mM, the “IC50 axenic amastigote forms of L. donovani” value [8] is given as 3.8 µg/mL and the “Promastigotes IC50±SE” value [7] is given as 258.7 ± 9.50 µg/mL. The IC50 [7] was 263 µg/mL and 818 µM.
For N=C(N)NCCC[C@H](N)C(=O)O [L-arginine], the Km (ARGLi) was 5.1 ± 1.1 mM.
In the case of O=c1cc(-c2ccc(O)cc2)oc2cc(O)cc(O)c12 [apigenin], the “effect on L. amazonensis arginase (in words)” value (L. amazonensis arginase) is given as “little effect”.
For O=C(/C=C/c1ccc(O)c(O)c1)O[C@@H]1C[C@](O)(C(=O)O)C[C@@H](O)[C@H]1O [Chlorogenic acid, chlorogenic acid], the “inhibition of L. amazonensis arginase activity” value (L. amazonensis arginase) is listed as “more than 50%”.
In the case of O=c1cc(-c2ccc(O)c(O)c2)oc2c([C@@H]3O[C@H](CO)[C@@H](O)[C@H](O)[C@H]3O)c(O)cc(O)c12 [orientin], the IC50 (L. amazonensis arginase) is listed as 16 ± 2 µM.
For O=c1c(O)c(-c2ccccc2)oc2cc(O)cc(O)c12 [galangin], the IC50 (L. amazonensis arginase) is listed as 100 µM.
For O=c1cc(-c2ccc(O)cc2)oc2cc(O)c([C@@H]3O[C@H](CO)[C@@H](O)[C@H](O)[C@H]3O)c(O)c12 [isovitexin], the “effect on L. amazonensis arginase (in words)” value (L. amazonensis arginase) is given as “little effect”.
For COc1ccc(/C=C/c2cc(O)cc(O[C@@H]3O[C@H](CO)[C@@H](O)[C@H](O)[C@H]3O)c2)cc1O [Rhaponticin, rhaponticin], the CC50 at 48 h ([2]; RAW 264.7 macrophages) was 825 µg/mL and 1.96 mM, the “percentage of inhibition of ARGLi activity” value [9] was “more than 50%” and the IC50 [7] was > 400 µg/mL and > 1 mM. For the same compound, the “antileishmanial activity against promastigotes (in words)” value ([7]; highest concentration tested) was “did not inhibit promastigote growth at the highest concentration tested”.
In the case of Oc1cc(O)c2c(c1)O[C@H](c1ccc(O)c(O)c1)[C@@H](O)C2 [(+)-catechin], the “inhibition of L. amazonensis arginase activity” value (L. amazonensis arginase) is given as “more than 50%”.
In the case of O=c1cc(-c2ccc(O)c(O)c2)oc2cc(O)c([C@@H]3O[C@H](CO)[C@@H](O)[C@H](O)[C@H]3O)c(O)c12 [isoorientin], the IC50 (L. amazonensis arginase) is given as 9 ± 1 µM.
In the case of O=c1c(O)c(-c2ccc(O)c(O)c2)oc2cc(O)cc(O)c12 [Quercetin, quercetin, reference compound], the “IC50 against L. donovani” value [8] is given as 1 µg/mL (≈ 3.31 µM), the “percentage of inhibition of bovine hepatic arginase” value (bovine hepatic arginase) is given as 64.4 ± 2.5% and the IC50 (bovine hepatic arginase) is given as 31.2 µM. For the same compound, the “percentage of inhibition of ARGLi activity” value [9] was 67.05 ± 10.36% and the IC50 (L. amazonensis arginase) was 4.3 µM.
In the case of COc1cc(O)c2c(=O)c(O)c(-c3ccc(O)c(O)c3)oc2c1 [Rhamnetin, rhamnetin], the CC50 at 48 h ([2]; RAW 264.7 macrophages) is given as > 1000 µg/mL and > 3 mM, the “IC50 axenic amastigote forms of L. donovani” value [8] is given as 4.6 µg/mL and the “percentage of inhibition of ARGLi activity” value [9] is given as about 56%. The “percentage of inhibition of ARGLi activity” value ([9]; listed as rhamnetin) was “more than 50%”, the “Promastigotes IC50±SE” value [7] was 263.2 ± 3.87 µg/mL and the IC50 [7] was 259 µg/mL and 832 µM.
For O=c1cc(-c2ccc(O)cc2)oc2c([C@@H]3O[C@H](CO)[C@@H](O)[C@H](O)[C@H]3O)c(O)cc(O)c12 [vitexin], the “effect on L. amazonensis arginase (in words)” value (L. amazonensis arginase) is listed as “little effect”.
